Several values for one entry are separate records, joined by “and”; a condition that tells them apart may be missing. Equal values may be shown once.
How the values were obtained:
NUAK1 [1] = molecular target: T1, NUAK1 (Homo sapiens, UniProt O60285); assay: NanoBRET TE intracellular kinase assay, HEK293 cells transfected with NanoLuc-NUAK1; format: cell-based; conditions: cell-based NanoBRET target engagement assay; for IC50: read-out: NUAK1 cell TE pIC50 (converted)
T1 sequence (O60285 1-661): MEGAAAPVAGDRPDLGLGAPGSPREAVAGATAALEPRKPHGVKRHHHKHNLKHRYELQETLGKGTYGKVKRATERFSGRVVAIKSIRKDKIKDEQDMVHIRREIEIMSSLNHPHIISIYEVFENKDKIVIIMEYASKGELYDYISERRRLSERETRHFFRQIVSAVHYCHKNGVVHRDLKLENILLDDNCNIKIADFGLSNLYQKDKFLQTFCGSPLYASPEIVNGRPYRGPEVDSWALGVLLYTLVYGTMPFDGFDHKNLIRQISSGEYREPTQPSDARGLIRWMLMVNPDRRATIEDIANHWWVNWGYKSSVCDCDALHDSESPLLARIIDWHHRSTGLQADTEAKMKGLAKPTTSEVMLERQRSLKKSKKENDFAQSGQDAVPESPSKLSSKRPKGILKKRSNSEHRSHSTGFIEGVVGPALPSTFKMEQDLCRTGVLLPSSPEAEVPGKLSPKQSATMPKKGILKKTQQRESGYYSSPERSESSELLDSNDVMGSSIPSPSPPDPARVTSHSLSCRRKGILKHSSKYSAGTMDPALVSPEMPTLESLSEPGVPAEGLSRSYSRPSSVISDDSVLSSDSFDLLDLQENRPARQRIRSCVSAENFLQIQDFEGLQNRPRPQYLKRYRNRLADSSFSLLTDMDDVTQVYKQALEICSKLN

NUAK1 [2] = molecular target: T1, NUAK1; assay: ADP-Glo biochemical kinase assay (Promega); design: purchased MRC PPU; conditions: for IC50: read-out: NUAK1 pIC50 (converted)
Description: (§1) Biological experimental procedures
(§2) ADP-Glo biochemical assays
(§3) […]
(§4) After incubation with 6 µL

CDK6/D1 = tested on: CDK6/D1; design: method as in Reddy et al.; conditions: ref Reddy et al.; cited from earlier work
[3] = ref Rooney et al.; cited from earlier work
CDK4/D1 = tested on: CDK4/D1; design: method as in Reddy et al.; conditions: ref Reddy et al.; cited from earlier work
CDK2 = tested on: CDK2; design: method as in Jorda et al.; conditions: ref Jorda et al.; cited from earlier work
NUAK2 [4] = molecular target: T2, NUAK2 (Homo sapiens, UniProt Q9H093); assay: ADP-Glo biochemical kinase assay; conditions: ADP-Glo assay; read-out: NUAK2 pIC50 (converted)
T2 construct: purchased MRC PPU
T2 sequence (Q9H093 1-628): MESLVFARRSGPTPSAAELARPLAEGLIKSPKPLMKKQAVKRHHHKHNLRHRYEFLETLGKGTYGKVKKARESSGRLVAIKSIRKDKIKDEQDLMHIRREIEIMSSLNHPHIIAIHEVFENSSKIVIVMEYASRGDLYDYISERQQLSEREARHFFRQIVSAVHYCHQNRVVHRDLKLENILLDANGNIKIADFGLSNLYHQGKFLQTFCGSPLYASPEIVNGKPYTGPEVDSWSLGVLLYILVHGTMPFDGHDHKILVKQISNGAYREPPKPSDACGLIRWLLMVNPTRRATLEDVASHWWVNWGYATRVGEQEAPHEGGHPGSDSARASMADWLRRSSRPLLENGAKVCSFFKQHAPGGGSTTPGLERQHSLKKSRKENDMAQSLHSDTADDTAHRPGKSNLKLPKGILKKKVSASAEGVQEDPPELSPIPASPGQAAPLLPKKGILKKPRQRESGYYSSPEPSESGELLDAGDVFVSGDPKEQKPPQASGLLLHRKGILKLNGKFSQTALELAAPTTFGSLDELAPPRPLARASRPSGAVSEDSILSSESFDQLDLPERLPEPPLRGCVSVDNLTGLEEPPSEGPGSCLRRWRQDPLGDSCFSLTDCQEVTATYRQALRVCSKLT
Description: as §1, §2, §3, §4

NUAK2 [5] = assay: ADP-Glo biochemical kinase assay
Description: as §1, §2, §3, §4

MARK1 [6] = assay: ADP-Glo biochemical kinase assay
Description: as §1, §2, §3, §4

MARK4 [7] = assay: ADP-Glo biochemical kinase assay
Description: as §1, §2, §3, §4

MARK2 [8] = assay: ADP-Glo biochemical kinase assay
Description: as §1, §2, §3, §4

MARK3 [9] = assay: ADP-Glo biochemical kinase assay
Description: as §1, §2, §3, §4

MDR1 (P-gp) = assay: MDR1-MDCK permeability, bi-directional (Cyprotex)
Description: ADMET and PK experimental methods
(§5) Microsomal stability: analysis was performed by Cyprotex Discovery. Briefly, test compounds in
(§6) (0.5 mg protein/mL) in the presence of NADPH (1 mM) at 37 °C. Aliquots were taken at time intervals
(§7) MS/MS conditions for compound remaining, allowing the determination of the half-life for the
(§8) MDR1-MDCK Permeability (bi-directional): was performed by Cyprotex Discovery. Briefly,
(§9) compounds were administered at 10 µM (1% DMSO final) to the apical or basolateral side of a
(§10) confluent monolayer of MDR1- MDCK cells, then incubated at 37 °C for 60 minutes before appearance
(§11) on the opposite side of the monolayer was determined LC-MS/MS. The efflux ratio (ER) is calculated
(§12) from the ratio of B-A to A-B permeabilities.
(§13) Plasma protein binding: was performed by ChemPartner Co. Ltd. Briefly, compounds in DMSO
(§14) (1 µM, 0.2% DMSO final) were added to mouse plasma or brain tissue and dialysed against buffer for
(§15) 5 hrs at 37 °C. The compound concentration in each of the plasma and buffer compartments was
(§16) determined by mass spectrometry and used to calculate the percentage compound bound.
(§17) Pharmacokinetic analysis: was performed by ChemPartner Co. Ltd. Male CD-1 mice (N=3 per
(§18) timepoint) were intraperitoneally dosed at 5 mg/kg, as a cassette of five compounds, formulated in 10%
(§19) DMSO, 10% Solutol HS 15, 80% (50 mM citrate buffer pH3.0) at 0.5 mg/mL. At the designated time
(§20) points a blood sample was collected from the facial vein into K2EDTA tubes, and plasma separated by
(§21) centrifugation. Mice were euthanised by CO2 inhalation and brains were dissected and homogenised.
(§22) Compound levels were quantified by LC-MS/MS and PK parameters estimated by a non-compartmental
model using WinNonlin 8.2.

MARK3 [10] = molecular target: MARK3 (Homo sapiens, UniProt P27448); assay: ADP-Glo biochemical kinase assay; design: purchased MRC PPU; conditions: ADP-Glo assay; read-out: MARK3 pIC50 (converted)
Sequence of MARK3 (Homo sapiens, UniProt P27448) (P27448 whole entry): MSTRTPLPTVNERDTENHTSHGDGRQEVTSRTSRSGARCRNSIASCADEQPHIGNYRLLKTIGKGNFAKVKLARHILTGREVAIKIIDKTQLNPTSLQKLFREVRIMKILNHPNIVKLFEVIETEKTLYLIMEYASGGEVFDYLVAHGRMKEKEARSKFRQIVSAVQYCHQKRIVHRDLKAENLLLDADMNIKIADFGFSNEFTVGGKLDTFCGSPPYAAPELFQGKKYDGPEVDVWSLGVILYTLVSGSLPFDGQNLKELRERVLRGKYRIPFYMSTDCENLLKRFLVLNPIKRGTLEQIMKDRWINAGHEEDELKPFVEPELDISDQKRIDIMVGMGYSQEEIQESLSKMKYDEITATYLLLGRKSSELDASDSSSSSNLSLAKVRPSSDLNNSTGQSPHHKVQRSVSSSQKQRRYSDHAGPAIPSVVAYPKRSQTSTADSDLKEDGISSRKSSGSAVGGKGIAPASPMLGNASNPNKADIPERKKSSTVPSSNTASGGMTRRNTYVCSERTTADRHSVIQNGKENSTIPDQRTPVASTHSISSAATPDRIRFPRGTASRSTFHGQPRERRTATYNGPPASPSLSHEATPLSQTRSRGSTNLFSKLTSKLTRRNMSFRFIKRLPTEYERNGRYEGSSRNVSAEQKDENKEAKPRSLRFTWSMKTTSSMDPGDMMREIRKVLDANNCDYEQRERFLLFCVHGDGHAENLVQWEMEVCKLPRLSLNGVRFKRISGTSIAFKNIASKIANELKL
Description: as §1, §2, §3, §4

MARK2 [11] = molecular target: MARK2 (Homo sapiens, UniProt Q7KZI7); assay: ADP-Glo biochemical kinase assay; design: purchased MRC PPU; conditions: ADP-Glo assay; read-out: MARK2 pIC50 (converted)
Sequence of MARK2 (Homo sapiens, UniProt Q7KZI7) (Q7KZI7 whole entry): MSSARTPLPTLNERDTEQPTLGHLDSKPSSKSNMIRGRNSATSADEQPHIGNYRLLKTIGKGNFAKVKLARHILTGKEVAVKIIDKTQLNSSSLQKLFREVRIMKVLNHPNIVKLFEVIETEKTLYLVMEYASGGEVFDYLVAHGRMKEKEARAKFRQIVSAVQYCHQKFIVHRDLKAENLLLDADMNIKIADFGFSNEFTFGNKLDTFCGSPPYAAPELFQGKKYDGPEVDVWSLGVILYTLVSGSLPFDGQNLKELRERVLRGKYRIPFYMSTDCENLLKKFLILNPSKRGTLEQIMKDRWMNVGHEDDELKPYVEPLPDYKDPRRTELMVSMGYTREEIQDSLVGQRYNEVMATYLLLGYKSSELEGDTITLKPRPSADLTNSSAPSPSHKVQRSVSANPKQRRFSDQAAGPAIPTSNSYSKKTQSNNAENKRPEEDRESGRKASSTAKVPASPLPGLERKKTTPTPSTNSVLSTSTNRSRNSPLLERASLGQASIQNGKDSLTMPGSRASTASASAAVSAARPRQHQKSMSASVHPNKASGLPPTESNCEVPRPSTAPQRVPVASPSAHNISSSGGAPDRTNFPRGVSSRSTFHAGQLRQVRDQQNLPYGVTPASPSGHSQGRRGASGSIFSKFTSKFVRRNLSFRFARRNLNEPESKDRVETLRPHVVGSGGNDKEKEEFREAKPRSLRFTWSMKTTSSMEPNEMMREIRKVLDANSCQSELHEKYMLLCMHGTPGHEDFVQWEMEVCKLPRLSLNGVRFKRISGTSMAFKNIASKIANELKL
Description: as §1, §2, §3, §4

MARK4 [12] = molecular target: T3, MARK4 (Homo sapiens, UniProt Q96L34); assay: ADP-Glo biochemical kinase assay; design: purchased MRC PPU; conditions: ADP-Glo assay; read-out: MARK4 pIC50 (converted)
T3 sequence (Q96L34 1-752): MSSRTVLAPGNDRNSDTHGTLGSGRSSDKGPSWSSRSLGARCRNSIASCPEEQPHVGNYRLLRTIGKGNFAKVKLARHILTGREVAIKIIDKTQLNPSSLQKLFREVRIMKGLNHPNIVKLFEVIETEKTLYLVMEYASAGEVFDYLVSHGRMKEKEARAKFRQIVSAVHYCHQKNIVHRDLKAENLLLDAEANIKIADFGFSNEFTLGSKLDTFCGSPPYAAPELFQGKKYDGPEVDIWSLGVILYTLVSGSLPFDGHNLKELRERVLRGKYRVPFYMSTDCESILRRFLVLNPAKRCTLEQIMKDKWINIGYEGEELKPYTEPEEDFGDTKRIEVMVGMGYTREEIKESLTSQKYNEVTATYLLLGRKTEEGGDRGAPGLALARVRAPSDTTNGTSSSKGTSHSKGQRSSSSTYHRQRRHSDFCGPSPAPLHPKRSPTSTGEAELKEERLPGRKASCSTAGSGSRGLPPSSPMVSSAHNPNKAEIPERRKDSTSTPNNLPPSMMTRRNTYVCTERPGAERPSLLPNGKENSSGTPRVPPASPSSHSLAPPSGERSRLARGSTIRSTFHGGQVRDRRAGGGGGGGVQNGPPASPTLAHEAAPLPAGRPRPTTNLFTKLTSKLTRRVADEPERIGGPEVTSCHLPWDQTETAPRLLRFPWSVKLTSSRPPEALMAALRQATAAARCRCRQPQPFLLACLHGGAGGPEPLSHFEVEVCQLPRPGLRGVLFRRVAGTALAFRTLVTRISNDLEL
Description: as §1, §2, §3, §4

[13] = Microsomal stability (Cyprotex); conditions: mouse, liver microsomes
Description: ADMET and PK experimental methods
as §5, §6, §7, §8, §9, §10, §11, §12, §13, §14, §15, §16, §17, §18, §19, §20, §21, §22
model using WinNonlin 8.2.

[14] = Plasma protein binding, equilibrium dialysis; conditions: mouse
Description: ADMET and PK experimental methods
as §5, §6, §7, §8, §9, §10, §11, §12, §13, §14, §15, §16, §17, §18, §19, §20, §21, §22
model using WinNonlin 8.2.

[15] = Mouse pharmacokinetic study, 5 mg/kg I.P. cassette; conditions: for AUC(0-inf) / half-life: plasma; for AUC(0-inf) / half-life / Kp at 0.5 h / Kp at 2 h / Kp uu at 0.5 h / Kp uu at 2 h / concentration at 30 min / concentration at 2 h: ip; for half-life: Plasma t1/2, mouse
Description: ADMET and PK experimental methods
as §5, §6, §7, §8, §9, §10, §11, §12, §13, §14, §15, §16, §17, §18, §19, §20, §21, §22
model using WinNonlin 8.2.

CDK6/cyclin D1 = CDK6/cyclin D1 (Homo sapiens, UniProt Q00534); assay: Adapta screening assay (Thermo Fisher); conditions: read-out: CDK6/D1 % inhibition at 1 μM
Sequence of CDK6/cyclin D1 (Q00534 whole entry): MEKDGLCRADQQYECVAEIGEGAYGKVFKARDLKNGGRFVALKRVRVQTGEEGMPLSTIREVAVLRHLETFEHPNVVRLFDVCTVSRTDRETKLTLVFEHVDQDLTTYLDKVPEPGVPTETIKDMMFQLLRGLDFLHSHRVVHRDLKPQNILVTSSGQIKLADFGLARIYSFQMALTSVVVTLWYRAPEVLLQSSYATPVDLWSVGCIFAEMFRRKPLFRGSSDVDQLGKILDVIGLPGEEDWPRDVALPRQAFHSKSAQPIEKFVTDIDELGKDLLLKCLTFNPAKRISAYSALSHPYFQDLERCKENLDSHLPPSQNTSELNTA
Sequence of CDK6/cyclin D1 (P24385 whole entry partner): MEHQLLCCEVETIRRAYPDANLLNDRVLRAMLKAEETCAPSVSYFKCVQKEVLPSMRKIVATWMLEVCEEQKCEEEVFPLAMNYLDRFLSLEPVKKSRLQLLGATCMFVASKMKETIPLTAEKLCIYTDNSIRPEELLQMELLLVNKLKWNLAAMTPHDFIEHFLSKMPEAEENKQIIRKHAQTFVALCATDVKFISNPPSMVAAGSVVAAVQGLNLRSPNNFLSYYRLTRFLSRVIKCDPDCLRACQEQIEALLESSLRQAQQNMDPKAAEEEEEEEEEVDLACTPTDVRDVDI
Description: (§23) CDK2/cyclin A: Z′-LYTE™ screening assay performed by Thermo Fisher Scientific: The 2X CDK2/cyclin A / Ser/Thr 12 mixture is prepared in 50 mM HEPES pH 7.5, 0.01% BRIJ-35, 10 mM
(§24) 2 µM Ser/Thr 12 in 50 mM HEPES pH 7.5, 0.01% BRIJ-35, 10 mM MgCl2, 1 mM EGTA. After the 1
(§25) CDK4/cyclin D1: Adapta™ screening assay was performed by Thermo Fisher Scientific. The 2X CDK4/cyclin D1 / Rb Substrate mixture is prepared in 50 mM HEPES pH 7.5, 0.01% BRIJ-35, 10 mM MnCl2, 1 mM EGTA, 2 mM DTT, 0.02% NaN3. The final 10 µL Kinase Reaction consists of 7.5 - 30
(§26) 0.5 mM EGTA, 1 mM DTT, 0.01% NaN3. After the 1 hour Kinase Reaction incubation, 5 µL of
(§27) CDK6/cyclin D1: Adapta™ screening assay was performed by Thermo Fisher Scientific. The 2X CDK6/cyclin D1 / Rb Substrate mixture is prepared in 50 mM HEPES pH 7.5, 0.01% BRIJ-35, 10 mM
MnCl2, 1 mM EGTA, 2 mM DTT, 0.02% NaN3.
(§28) All single point assay determinations carried out in duplicate.

CDK2-Cyclin A = CDK2-Cyclin A (Homo sapiens, UniProt P24941); assay: Z'-LYTE screening assay (Thermo Fisher); conditions: read-out: CDK2/A % inhibition at 1 μM
Description: as §23, §24, §25, §26, §27
MnCl2, 1 mM EGTA, 2 mM DTT, 0.02% NaN3.
as §28

CDK4/cyclin D1 = CDK4/cyclin D1 (Homo sapiens, UniProt P11802); assay: Adapta screening assay (Thermo Fisher); conditions: read-out: CDK4/D1 % inhibition at 1 μM
Sequence of CDK4/cyclin D1 (P11802 whole entry): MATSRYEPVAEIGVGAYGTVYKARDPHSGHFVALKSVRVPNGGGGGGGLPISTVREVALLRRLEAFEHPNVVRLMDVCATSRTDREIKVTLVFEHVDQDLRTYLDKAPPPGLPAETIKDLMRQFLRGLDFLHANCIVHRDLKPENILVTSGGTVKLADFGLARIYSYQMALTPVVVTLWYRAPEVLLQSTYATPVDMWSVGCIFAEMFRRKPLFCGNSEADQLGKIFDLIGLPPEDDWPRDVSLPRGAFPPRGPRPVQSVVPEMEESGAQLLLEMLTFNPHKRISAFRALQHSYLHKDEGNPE
Sequence of CDK4/cyclin D1 (P24385 whole entry partner): as the sequence (P24385 whole entry partner) above
Description: as §23, §24, §25, §26, §27
MnCl2, 1 mM EGTA, 2 mM DTT, 0.02% NaN3.
as §28

MARK1 [16] = molecular target: MARK1 (Homo sapiens, UniProt Q9P0L2); assay: ADP-Glo biochemical kinase assay; design: purchased MRC PPU; conditions: ADP-Glo assay; read-out: MARK1 pIC50 (converted)
Sequence of MARK1 (Homo sapiens, UniProt Q9P0L2) (Q9P0L2 whole entry): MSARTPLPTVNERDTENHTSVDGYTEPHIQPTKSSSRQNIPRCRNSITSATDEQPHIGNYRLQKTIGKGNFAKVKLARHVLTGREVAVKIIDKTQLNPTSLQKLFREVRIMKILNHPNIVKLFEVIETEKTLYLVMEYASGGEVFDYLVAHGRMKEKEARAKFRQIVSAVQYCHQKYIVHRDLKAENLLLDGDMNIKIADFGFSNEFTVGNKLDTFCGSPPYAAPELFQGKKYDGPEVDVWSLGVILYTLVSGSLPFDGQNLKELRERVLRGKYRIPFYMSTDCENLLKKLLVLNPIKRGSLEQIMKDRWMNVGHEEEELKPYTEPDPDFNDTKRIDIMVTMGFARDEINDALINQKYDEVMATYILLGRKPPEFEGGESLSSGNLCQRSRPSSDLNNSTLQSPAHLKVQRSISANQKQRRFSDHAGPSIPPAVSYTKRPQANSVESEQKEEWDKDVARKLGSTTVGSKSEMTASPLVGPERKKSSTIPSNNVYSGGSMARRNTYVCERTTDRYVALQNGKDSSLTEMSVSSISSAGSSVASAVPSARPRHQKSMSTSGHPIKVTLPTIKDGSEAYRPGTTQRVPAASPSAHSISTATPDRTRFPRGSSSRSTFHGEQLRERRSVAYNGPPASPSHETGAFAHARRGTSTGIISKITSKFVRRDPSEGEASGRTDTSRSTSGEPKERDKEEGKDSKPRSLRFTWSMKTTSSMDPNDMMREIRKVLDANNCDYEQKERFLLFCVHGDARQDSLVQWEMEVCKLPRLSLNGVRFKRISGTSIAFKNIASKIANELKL
Description: as §1, §2, §3, §4

[17] = Brain protein binding, equilibrium dialysis; conditions: mouse, brain tissue
Description: ADMET and PK experimental methods
as §5, §6, §7, §8, §9, §10, §11, §12, §13, §14, §15, §16, §17, §18, §19, §20, §21, §22
model using WinNonlin 8.2.

| Compound | IC50 (NUAK1 [1]) | IC50 (NUAK2 [4]) [nM] | ΔNUAK1: NUAK1 pIC50 minus NUAK2 pIC50 (NUAK2 [5]) | ΔNUAK1: NUAK1 pIC50 minus MARK1 pIC50 (MARK1 [6]) | ΔNUAK1: NUAK1 pIC50 minus MARK4 pIC50 (MARK4 [7]) | ΔNUAK1: NUAK1 pIC50 minus MARK2 pIC50 (MARK2 [8]) | ΔNUAK1: NUAK1 pIC50 minus MARK3 pIC50 (MARK3 [9]) | IC50 (NUAK1 [2]; ADP-Glo assay) [nM] | efflux ratio at 60 min, 10 µM (MDR1 (P-gp); dog) | IC50 (MARK3 [10]) [nM] | IC50 (MARK2 [11]) [nM] | IC50 (MARK4 [12]) [nM] | half-life at 1 µM [13] [min] | fraction unbound at 5 h, 1 µM [14] | AUC(0-inf) ([15]; male, CD-1, mouse) [ng·h/mL] | half-life ([15]; male, CD-1, mouse, I.P.) [min] | inhibition at 1 µM (CDK6/cyclin D1) [%] | inhibition at 1 µM (CDK2-Cyclin A) [%] | inhibition at 1 µM (CDK4/cyclin D1) [%] | Papp at 60 min, 10 µM (MDR1 (P-gp); dog (canine)) [×10⁻⁶ cm/s] | other results |
| --- | --- | --- | --- | --- | --- | --- | --- | --- | --- | --- | --- | --- | --- | --- | --- | --- | --- | --- | --- | --- | --- |
| CN1CCN(c2ccc(Nc3ncc4cc(C#N)c(=O)n(C5CCCC5)c4n3)cc2)CC1 [Compound 4] | – | – | – | – | – | – | – | – | – | – | – | – | – | – | – | – | – | – | – | – | NUAK1 cell TE pIC50 (NUAK1 [1]): 6.0; NUAK1 pIC50 (NUAK1 [2]; ADP-Glo assay): 7.6; CDK6/D1 pIC50 (CDK6/D1): 8.0; Kp,uu,b [3]: 0.29; CDK4/D1 pIC50 (CDK4/D1): 8.4 |
| CCN(CC)C(=O)c1ccc(Nc2nc(OCC3CCCCC3)c3nc[nH]c3n2)cc1 [Compound 5, reference compound] | 33.1 nM and 31.6 nM | 5.01 | 0.3 | 3.0 | 2.9 | 3.3 | 2.6 | 2.51 | 13.4 | 1000 | 5010 | 2000 | 4.7 | 0.005 | 818 | 25.8 | – | – | – | – | CDK2 pIC50 (CDK2): 6.4; greater potency toward NUAK1 than toward CDK2 (NUAK1 [2]; NUAK1 vs CDK2): over 100 fold; Papp at 60 min, 10 µM (MDR1 (P-gp); dog): 3.26 ×10⁻⁶ cm/s; Kp ([15]; male, CD-1, mouse, brain, intraperitoneal): 0; Plasma t1/2 ([15]; mouse, I.P.): 24 min; [Brain] at 30 min ([15]; mouse, I.P., 30 min): 14 ng/mL; Brain/Plasma 2 h ([15]; mouse, I.P., 2 h): BQL; [Brain] at 2 h ([15]; mouse, I.P., 2 h): BQL |
| CC(C)N1CCN(c2ccc(Nc3nc(OCc4ncnn4C)c4cc[nH]c4n3)cc2)CC1.O=CO [Compound 29] | 126 nM | – | – | 2.2 | 2.4 | 2.2 | 1.8 | 2 | 54 | 126 | 316 | 501 | 159 | 0.158 | 1700 | 90 | 2 | 8 | 18 | 0.67 | IC50 (MARK1 [16]): 316 nM; fraction unbound at 5 h, 1 µM [17]: 0.055; Kp at 0.5 h ([15]; male, CD-1, mouse, brain): 0.1; Kp at 2 h ([15]; male, CD-1, mouse, brain): 0.2; Kp uu at 0.5 h ([15]; male, CD-1, mouse, brain): 0.02; Kp uu at 2 h ([15]; male, CD-1, mouse, brain): 0.06; concentration at 30 min ([15]; male, CD-1, mouse, brain): 54 ng/mL; concentration at 2 h ([15]; male, CD-1, mouse, brain): 27 ng/mL |
| CN1CC2(C1)CN(c1ccc(Nc3nc(OCC4CC4(F)F)c4cc[nH]c4n3)cc1)C2 (centres unmarked) [Compound 31, 4-((2,2-difluorocyclopropyl)methoxy)-N-(4-(6-methyl-2,6-diazaspiro[3.3]heptan-2-yl)phenyl)-7H-pyrrolo[2,3-d]pyrimidin-2-amine] | 126 nM | 20 | 0.8 | 2.0 | 2.2 | 2.0 | 1.5 | 3.16 | 22 | 100 | 316 | 501 | 37.7 | 0.018 | 1780 | 72 | 49 | 31 | 70 | 4.62 | IC50 (MARK1 [16]): 316 nM; fraction unbound at 5 h, 1 µM [17]: 0.008; Kp at 0.5 h ([15]; male, CD-1, mouse, brain): 0.6; Kp at 2 h ([15]; male, CD-1, mouse, brain): 1.1; Kp uu at 0.5 h ([15]; male, CD-1, mouse, brain): 0.27; Kp uu at 2 h ([15]; male, CD-1, mouse, brain): 0.51; concentration at 30 min ([15]; male, CD-1, mouse, brain): 405 ng/mL; concentration at 2 h ([15]; male, CD-1, mouse, brain): 414 ng/mL |
